{"source": "patent US20250134884A1", "about": "“METHOD AND PHARMACEUTICAL COMPOSITION FOR TREATING TYPE II DIABETES” (LUMISTAR BIOTECHNOLOGY, INC., priority 2023, published 2025)", "key": {"MIN6 cells [1]": {"system": "MIN6 cells", "assay": "Insulin secretion by hINS-GLuc luciferase reporter in MIN6 β cells under high glucose", "format": "cell-based, mouse", "settings": "20 mM glucose; for insulin secretion compared to the DMSO control group (luminescence signals from secreted insulin): MIN6 cells, FIG. 4; for position among the top five compounds with significant increase in insulin secretion relative to high glucose stimulation: Table 2", "procedure": "With the inclusion of a luciferase-tagged insulin construct, hINS-GLuc allows for rapid quantification of secreted insulin in the supernatant for drug screening, unlike the traditional method of measuring insulin via ELISA. This quantification is achieved by measuring the luminescence (relative light units, RLU) upon adding the luciferin of coelenterazine.\nFor measuring insulin secretion, the medium will first be removed, and MIN6 cells will then be rinsed in Krebs-Ringer buffer (119 mM NaCl, 4.74 mM KCl, 2.54 mM CaCl2), 1.19 mM MgSO4, 1.19 mM KH2PO4, 25 mM NaHCO3, 10 mM Hepes, and 0.1% BSA, pH 7.4) before incubation with or without 20 mM glucose in Krebs-Ringer buffer. Compounds will be added at a final concentration of 25 μM for two hours. At the end of the incubation period, the buffer will be removed, and the cells will then be briefly centrifuged, with the supernatant collected for measuring insulin secretion. Measurement of insulin secretion and C-peptide release will be performed using either an insulin or C-peptide ELISA kit (FIG. 1A), according to the manufacturer's instructions (Mercodia), or by measuring luminescence after adding luciferin (FIGS. 2A, 2B, and 4).\nWith the establishment of reporter platform in β cell lines, 50 drugs screening with compounds associated with pathways associated with metabolic diseases are conducted. This included inhibitor or agonist against Glucagon-like peptide-1 (GLP-1), Cytochrome c oxidase (COX), Phosphodiesterase (PDE), AMP activated protein kinase (AMPK), dipeptidyl peptidase-4 (DPP-4), calcium and potassium channels, 5-hydroxytryptamine (5-HT) or estrogen/progestogen receptors. As compounds can either “trigger” insulin secretion (i.e., in low glucose condition) or “amplify” insulin secretion (i.e., in high glucose condition). To mimic hyperglycemic condition, the compounds that may amplify insulin secretion under high glucose conditions have been chosen.\nTo enable this screen, we adapted a 96 well format with β cells plated 74 hours prior to compound challenge in triplicates. Post-stimulation, supernatant was aliquoted and transferred into at least 2 empty plates for either storage or luciferase measurement with the addition of coelenterazine.\nFIG. 4 is a relative light unit graph depicting the ability of various 5-HT1A receptor antagonists to induce insulin secretion in MIN6 cells in the presence of a high concentration of glucose."}, "MIN6 cells [2]": {"system": "MIN6 cells", "assay": "Single cell Ca2+ flux monitoring with K-GECO1 reporter", "format": "cell-based, mouse", "settings": "20 mM glucose and 25 μM WAY-100635 Maleate, FIG. 3C", "source_text": "One component of the reporter construct is a red fluorescent protein (RFP)-based Ca^2+ indicator (i.e., K-GECO1, reporter with an affinity for calcium ion) that is expressed within the cytoplasm. In this example, an inverted microscope (D1, Zeiss) equipped with a 63 Å˜objective lens (NA 1.4, Zeiss) and a multiwavelength LED light source (pE-4000, CoolLED) will be used. Blue (470 nm) and green (550 nm) excitation will be used to illuminate ChR2-EYFP and K-GECO1, respectively. The green fluorescent protein (GFP) filter set, and the red fluorescent protein (RFP) filter set will be used to confirm the expression of ChR2-EYFP and K-GECO1 in cells. […]\nThis allowed the detection of Ca^2+ influx into β cell as a consequence of calcium channel opening. β cells expressing the reporter construct were first stimulated with glucose (e.g., 20 mM glucose) to establish a baseline profile of Ca^2+ influx over time. […] FIG. 3A is the fluorescence intensity graph using the K-GECO1 reporter gene in Min6 cells to monitor glucose stimulation; and FIG. 3B is a representative image using the K-GECO1 reporter gene in Min6 cells after glucose stimulation. In FIG. 3A, the horizontal axis represents time (minutes), the vertical axis represents fluorescence intensity, and an arrow represents the point of stimulation and lines represent individual cells. […]"}}, "data": [{"compound": "CCC(=O)c1c(O)cc(O)cc1O", "note": "[Flopropione]", "values": [{"measurement": "insulin secretion compared to the DMSO control group (luminescence signals from secreted insulin)", "setting": "MIN6 cells [1]", "result": "did not show a significant increase"}]}, {"compound": "CC(C)Cn1c(=O)n(C)c(=O)c2[nH]cnc21", "note": "[IBMX]", "values": [{"measurement": "position among the top five compounds with significant increase in insulin secretion relative to high glucose stimulation", "setting": "MIN6 cells [1]; compound 25 μM, two hours", "result": 4}]}, {"compound": "O=c1c(O)c(-c2ccc(O)cc2)oc2cc(O)cc(O)c12", "note": "[Kaempferol]", "values": [{"measurement": "position among the top five compounds with significant increase in insulin secretion relative to high glucose stimulation", "setting": "MIN6 cells [1]; compound 25 μM, two hours", "result": 2}]}, {"compound": "C[C@H](CN(C(=O)c1ccc(C#N)cc1)c1ccccn1)N1CCN(c2cccc3c2OCCO3)CC1", "note": "[Lecozotan]", "values": [{"measurement": "insulin secretion compared to the DMSO control group (luminescence signals from secreted insulin)", "setting": "MIN6 cells [1]", "result": "did not show a significant increase"}]}, {"compound": "Cc1[nH]c(=O)c(C#N)cc1-c1ccncc1", "note": "[Milrinone]", "values": [{"measurement": "position among the top five compounds with significant increase in insulin secretion relative to high glucose stimulation", "setting": "MIN6 cells [1]; compound 25 μM, two hours", "result": 5}]}, {"compound": "COc1ccccc1N1CCN(CCN(C(=O)C2CCCCC2)c2ccccn2)CC1.O=C(O)/C=C\\C(=O)O", "note": "[WAY-100635 maleate]", "values": [{"measurement": "Ca2+ influx profile (K-GECO1 fluorescence intensity)", "setting": "MIN6 cells [2]", "result": "significant change in Ca^2+ influx profile"}, {"measurement": "insulin secretion compared to the DMSO control group (luminescence signals from secreted insulin)", "setting": "MIN6 cells [1]", "result": "significantly increased"}, {"measurement": "insulin secretion relative to high glucose stimulation alone (luminescence, RLU)", "setting": "MIN6 cells [1]; compound 25 μM, two hours, reporter expressing β cells, FIG. 2A", "result": "promotes insulin secretion"}, {"measurement": "position among the top five compounds with significant increase in insulin secretion relative to high glucose stimulation", "setting": "MIN6 cells [1]; compound 25 μM, two hours", "result": 3}]}, {"compound": "Exendin-4", "values": [{"measurement": "position among the top five compounds with significant increase in insulin secretion relative to high glucose stimulation", "setting": "MIN6 cells [1]; compound 25 μM, two hours", "result": 1}]}]}
